Test results taken from US20220132854A1, “STABLE LIQUID COMPOSITIONS AND METHODS OF USING THE SAME” (priority 2019, published 2022).

Experiment: Storage stability of liquid compositions, 8 weeks at 40° C., loss by HPLC
Assay type: physicochemical
Conditions: same inert ingredients as Composition #7 of Table 3; aged 8 weeks at 40° C.
Procedure: To test stability, the compositions were sealed in a container and stored for 8 weeks at 40° C. The relative percentage loss of halosulfuron-methyl was calculated using high performance liquid chromatography (HPLC). The samples were extracted with solvents and then analyzed with reverse phase HPLC equipped with UV detector. The response from the detector are peak areas (mAu*s). The peak areas were correlated with percentage active ingredients through a standard calibration curve. The percentage of pesticide was calculated through the calibration curve. Chemically stable compositions are those compositions that had less than 5% (w/w) relative loss of halosulfuron-methyl after 8 weeks of storage at 40° C.
The compositions described herein lose 5% (w/w) or less of the pesticide after storing the liquid composition for 8 weeks at 40° C. in a sealed container. Alternatively, the compositions described herein comprise at least 95% (w/w) of the pesticide after storing the liquid composition for 8 weeks at 40° C. in a sealed container. The percent loss is measured by quantitative chromatography, such as High Performance Liquid Chromatography (HPLC).

COC(=O)c1sccc1S(=O)(=O)NC(=O)Nc1nc(C)nc(OC)n1 [Thifensulfuron-methyl, thifensulfuron-methyl]
relative loss of thifensulfuron-methyl: less than 5 % w/w
